Measured values published in US12102089B2, “Method for inactivating mold spores” (DSM IP ASSETS B.V., priority 2017, dated 2024).

System: Talaromyces emersonii (CBS 236.58)
Assay: Heat treatment of Talaromyces emersonii spores in ice tea with natamycin, visual growth
Type: cell-based
Parameters: key to growth or no growth: growth (+); no growth (−)
Description: Commercially available ice tea (Lipton, peach flavor, non-carbonated, 1.5 L) was adjusted to high water hardness by adding 1 ml of a solution of 39 g CaCl2 and 27 g MgCl2 added to 934 g water. ⅓ of this ice tea preparation (the pH of which was 3.15) was left as-such, ⅓ of the preparation was enriched with 5 ppm natamycin and ⅓ of the preparation was enriched with 10 ppm natamycin. Samples of 5 ml were made from each preparation in 15 ml sterile plastic tubes. Of each preparation 8 samples were pre-heated to the desired pasteurization temperature using a water bath. Temperatures used were RT, 60, 65, 70, 75, 80, 85 and 90° C. When the desired temperature was reached, 100 μl of a 2500 spores/ml spore suspension of Aspergillus niger ATCC 9029AA was added to each tube. Subsequently, the samples were kept for 30 seconds at the temperature in question in the water bath. Next, the samples were cooled on ice to a temperature of 25° C. Samples were incubated at 25° C. and visually examined for growth (formation of mold flakes or turbidity) for two months. Additionally, samples were enumerated according to ISO protocol 21527-1.2008 on day 0 (before heat treatment) and day 1 (after heat treatment) to count immediate loss of viability. […] For the results, see Table 1. […] Example 1 was repeated however with Talaromyces emersonii (CBS 236.58, 1000 spores/ml) instead of Aspergillus niger.

C[C@@H]1C/C=C/C=C/C=C/C=C/[C@H](O[C@@H]2O[C@H](C)[C@@H](O)[C@H](N)[C@@H]2O)C[C@@H]2O[C@](O)(C[C@@H](O)C[C@H]3O[C@@H]3/C=C/C(=O)O1)C[C@H](O)[C@H]2C(=O)O [natamycin]
growth or no growth (60°C, 5 ppm, day 1): −
growth or no growth (60°C, 5 ppm, day 2): −
growth or no growth (60°C, 5 ppm, day 3): −
growth or no growth (60°C, 5 ppm, day 4): −
growth or no growth (60°C, 5 ppm, day 5): −
growth or no growth (60°C, 5 ppm, day 6): −
growth or no growth (60°C, 5 ppm, day 7): −
growth or no growth (60°C, 5 ppm, day 8): −
growth or no growth (60°C, 5 ppm, day 9): −
growth or no growth (60°C, 5 ppm, day 10): −
growth or no growth (60°C, 5 ppm, day 11): −
growth or no growth (60°C, 5 ppm, day 12): −
growth or no growth (60°C, 5 ppm, day 13): −
growth or no growth (60°C, 5 ppm, day 14): −
growth or no growth (60°C, 10 ppm, day 1): −
growth or no growth (60°C, 10 ppm, day 2): −
growth or no growth (60°C, 10 ppm, day 3): −
growth or no growth (60°C, 10 ppm, day 4): −
growth or no growth (60°C, 10 ppm, day 5): −
growth or no growth (60°C, 10 ppm, day 6): −
growth or no growth (60°C, 10 ppm, day 7): −
growth or no growth (60°C, 10 ppm, day 8): −
growth or no growth (60°C, 10 ppm, day 9): −
growth or no growth (60°C, 10 ppm, day 10): −
growth or no growth (60°C, 10 ppm, day 11): −
growth or no growth (60°C, 10 ppm, day 12): −
growth or no growth (60°C, 10 ppm, day 13): −
growth or no growth (60°C, 10 ppm, day 14): −
growth or no growth (65°C, 5 ppm, day 1): −
growth or no growth (65°C, 5 ppm, day 2): −
growth or no growth (65°C, 5 ppm, day 3): −
growth or no growth (65°C, 5 ppm, day 4): +
growth or no growth (65°C, 5 ppm, day 5): +
growth or no growth (65°C, 5 ppm, day 6): +
growth or no growth (65°C, 5 ppm, day 7): +
growth or no growth (65°C, 5 ppm, day 8): +
growth or no growth (65°C, 5 ppm, day 9): +
growth or no growth (65°C, 5 ppm, day 10): +
growth or no growth (65°C, 5 ppm, day 11): +
growth or no growth (65°C, 5 ppm, day 12): +
growth or no growth (65°C, 5 ppm, day 13): +
growth or no growth (65°C, 5 ppm, day 14): +
growth or no growth (65°C, 10 ppm, day 1): −
growth or no growth (65°C, 10 ppm, day 2): −
growth or no growth (65°C, 10 ppm, day 3): −
growth or no growth (65°C, 10 ppm, day 4): −
growth or no growth (65°C, 10 ppm, day 5): −
growth or no growth (65°C, 10 ppm, day 6): −
growth or no growth (65°C, 10 ppm, day 7): −
growth or no growth (65°C, 10 ppm, day 8): −
growth or no growth (65°C, 10 ppm, day 9): −
growth or no growth (65°C, 10 ppm, day 10): −
growth or no growth (65°C, 10 ppm, day 11): −
growth or no growth (65°C, 10 ppm, day 12): −
growth or no growth (65°C, 10 ppm, day 13): −
growth or no growth (65°C, 10 ppm, day 14): −
growth or no growth (70°C, 5 ppm, day 1): −
growth or no growth (70°C, 5 ppm, day 2): −
growth or no growth (70°C, 5 ppm, day 3): −
growth or no growth (70°C, 5 ppm, day 4): −
growth or no growth (70°C, 5 ppm, day 5): −
growth or no growth (70°C, 5 ppm, day 6): −
growth or no growth (70°C, 5 ppm, day 7): −
growth or no growth (70°C, 5 ppm, day 8): −
growth or no growth (70°C, 5 ppm, day 9): −
growth or no growth (70°C, 5 ppm, day 10): −
growth or no growth (70°C, 5 ppm, day 11): −
growth or no growth (70°C, 5 ppm, day 12): −
growth or no growth (70°C, 5 ppm, day 13): −
growth or no growth (70°C, 5 ppm, day 14): −
growth or no growth (70°C, 10 ppm, day 1): −
growth or no growth (70°C, 10 ppm, day 2): −
growth or no growth (70°C, 10 ppm, day 3): −
growth or no growth (70°C, 10 ppm, day 4): −
growth or no growth (70°C, 10 ppm, day 5): −
growth or no growth (70°C, 10 ppm, day 6): −
growth or no growth (70°C, 10 ppm, day 7): −
growth or no growth (70°C, 10 ppm, day 8): −
growth or no growth (70°C, 10 ppm, day 9): −
growth or no growth (70°C, 10 ppm, day 10): −
growth or no growth (70°C, 10 ppm, day 11): −
growth or no growth (70°C, 10 ppm, day 12): −
growth or no growth (70°C, 10 ppm, day 13): −
growth or no growth (70°C, 10 ppm, day 14): −
germination (75° C., 10 ppm natamycin): no germination occurred
growth or no growth (75°C, 5 ppm, day 9): +
growth or no growth (75°C, 5 ppm, day 10): +
germination (85° C., both concentrations (5 and 10 ppm)): no germination occurred
germination (RT, 5 or 10 ppm natamycin): delayed germination
growth or no growth (RT, 10 ppm, day 1): −
growth or no growth (RT, 10 ppm, day 2): −
growth or no growth (RT, 10 ppm, day 3): −
growth or no growth (RT, 10 ppm, day 4): −
growth or no growth (RT, 10 ppm, day 5): −
growth or no growth (RT, 10 ppm, day 6): −
growth or no growth (RT, 10 ppm, day 7): +
growth or no growth (RT, 10 ppm, day 8): +
growth or no growth (RT, 10 ppm, day 9): +
growth or no growth (RT, 10 ppm, day 10): +
growth or no growth (RT, 10 ppm, day 11): +
growth or no growth (RT, 10 ppm, day 12): +
growth or no growth (RT, 10 ppm, day 13): +
growth or no growth (RT, 10 ppm, day 14): +
